ChEMBL document CHEMBL5055685, “Discovery of the First Potent IDO1/IDO2 Dual Inhibitors: A Promising Strategy for Cancer Immunotherapy” (J Med Chem, 2021)
The source made the active and inactive calls. The rule behind the calls is not given here.

Experiments:
[1] = Clearance in dog liver microsomes; type: ADME, Canis lupus familiaris, Microsome; conditions: read-out: CLH
[2] = Efflux ratio of apparent permeability across basolateral to apical over apical to basolateral side in human Caco-2 cells; type: ADME, cell-based
[3] = Protein binding in human plasma assessed as fraction unbound by equilibrium dialysis; type: ADME, cell-free
CT26 = assay: Antitumor activity against mouse CT26 cells implanted in BALB/c mouse assessed as tumor growth inhibition at 50 mg/kg, ip bid for 28 days by vernier caliper method relative to control; type: functional; conditions: CT26, 672 h, time 28 day, read-out: TGI
HCT-116 = assay: Antitumor immunity in BALB/c mouse xenografted with human HCT-116 cells assessed as induction of apoptosis of CD4+ T-lymphocytes in spleen by propidium iodide staining based flow cytometry analysis (reference value: 33.9 %); type: functional
[4] = target: Activin receptor type-1B (Homo sapiens) (UniProt P36896); assay: Inhibition of ALK4 (unknown origin) at 1 uM
Homo sapiens [5] = organism: Homo sapiens; assay: Inhibition of ALK6 (unknown origin) at 1 uM
[6] = target: Aurora kinase B (Homo sapiens) (UniProt Q96GD4); assay: Inhibition of Aurora B (unknown origin) at 1 uM
[7] = target: Tyrosine-protein kinase Blk (Homo sapiens) (UniProt P51451); assay: Inhibition of BLK (unknown origin) at 1 uM
[8] = target: Serine/threonine-protein kinase BRSK1 (Homo sapiens) (UniProt Q8TDC3); assay: Inhibition of BRSK1 (unknown origin) at 1 uM
[9] = target: Calcium/calmodulin-dependent protein kinase type 1B (Homo sapiens) (UniProt Q6P2M8); assay: Inhibition of CAMK1B (unknown origin) at 1 uM
[10] = target: Calcium/calmodulin-dependent protein kinase type II subunit alpha (Homo sapiens) (UniProt Q9UQM7); assay: Inhibition of CAMK2A (unknown origin) at 1 uM
[11] = target: CDK6/cyclin D1 (Homo sapiens) (UniProt P24385+Q00534); assay: Inhibition of CDK6/cyclin-D1 (unknown origin) at 1 uM; type: protein-complex assay
[12] = target: CDK7/Cyclin H/MNAT1 (Homo sapiens) (UniProt P51946+P50613+P51948); assay: Inhibition of CDK7/cyclin-H/MNAT1 (unknown origin) at 1 uM; type: protein-complex assay
[13] = target: Dual specificity protein kinase CLK1 (Homo sapiens) (UniProt P49759); assay: Inhibition of CLK1 (unknown origin) at 1 uM
[14] = target: Dual specificity protein kinase CLK2 (Homo sapiens) (UniProt P49760); assay: Inhibition of CLK2 (unknown origin) at 1 uM
[15] = target: Myotonin-protein kinase (Homo sapiens) (UniProt Q09013); assay: Inhibition of DMPK (unknown origin) at 1 uM
[16] = target: Dual specificity tyrosine-phosphorylation-regulated kinase 1B (Homo sapiens) (UniProt Q9Y463); assay: Inhibition of DYRK1B (unknown origin) at 1 uM
[17] = target: Ephrin type-B receptor 1 (Homo sapiens) (UniProt P54762); assay: Inhibition of EPHB1 (unknown origin) at 1 uM
[18] = target: Fibroblast growth factor receptor 4 (Homo sapiens) (UniProt P22455); assay: Inhibition of FGFR4 (unknown origin) at 1 uM
[19] = target: Tyrosine-protein kinase FRK (Homo sapiens) (UniProt P42685); assay: Inhibition of FRK (unknown origin) at 1 uM
[20] = target: Homeodomain-interacting protein kinase 2 (Homo sapiens) (UniProt Q9H2X6); assay: Inhibition of HIPK2 (unknown origin) at 1 uM
[21] = target: Homeodomain-interacting protein kinase 3 (Homo sapiens) (UniProt Q9H422); assay: Inhibition of HIPK3 (unknown origin) at 1 uM
[22] = target: Inhibitor of nuclear factor kappa-B kinase subunit epsilon (Homo sapiens) (UniProt Q14164); assay: Inhibition of IKKepsilon (unknown origin) at 1 uM
[23] = target: Tyrosine-protein kinase JAK2 (Homo sapiens) (UniProt O60674); assay: Inhibition of JAK2 (unknown origin) at 1 uM
[24] = target: Mitogen-activated protein kinase 9 (Homo sapiens) (UniProt P45984); assay: Inhibition of JNK2 (unknown origin) at 1 uM
[25] = target: Mitogen-activated protein kinase 10 (Homo sapiens) (UniProt P53779); assay: Inhibition of JNK3 (unknown origin) at 1 uM
[26] = target: Kinase suppressor of Ras 1 (Homo sapiens) (UniProt Q8IVT5); assay: Inhibition of KSR1 (unknown origin) at 1 uM
[27] = target: Kinase suppressor of Ras 2 (Homo sapiens) (UniProt Q6VAB6); assay: Inhibition of KSR2 (unknown origin) at 1 uM
[28] = target: Mitogen-activated protein kinase kinase kinase 1 (Homo sapiens) (UniProt Q13233); assay: Inhibition of MEKK1 (unknown origin) at 1 uM
[29] = target: Mitogen-activated protein kinase kinase kinase 10 (Homo sapiens) (UniProt Q02779); assay: Inhibition of MLK2 (unknown origin) at 1 uM
[30] = target: Myosin-IIIb (Homo sapiens) (UniProt Q8WXR4); assay: Inhibition of MYO3B (unknown origin) at 1 uM
[31] = target: Serine/threonine-protein kinase Nek8 (Homo sapiens) (UniProt Q86SG6); assay: Inhibition of NEK8 (unknown origin) at 1 uM
[32] = target: Serine/threonine-protein kinase Nek9 (Homo sapiens) (UniProt Q8TD19); assay: Inhibition of NEK9 (unknown origin) at 1 uM
[33] = target: Serine/threonine-protein kinase NIM1 (Homo sapiens) (UniProt Q8IY84); assay: Inhibition of NIM1 (unknown origin) at 1 uM
[34] = target: Mitogen-activated protein kinase 12 (Homo sapiens) (UniProt P53778); assay: Inhibition of p38gamma (unknown origin) at 1 uM
[35] = target: Serine/threonine-protein kinase PAK 5 (Homo sapiens) (UniProt Q9P286); assay: Inhibition of PAK5 (unknown origin) at 1 uM
[36] = target: Inactive tyrosine-protein kinase PEAK1 (Homo sapiens) (UniProt Q9H792); assay: Inhibition of PEAK1 (unknown origin) at 1 uM
[37] = target: Protein kinase C epsilon type (Homo sapiens) (UniProt Q02156); assay: Inhibition of PKCepsilon (unknown origin)at 1 uM
Homo sapiens [38] = organism: Homo sapiens; assay: Inhibition of PKG2 (unknown origin) at 1 uM
[39] = target: Serine/threonine-protein kinase SIK1 (Homo sapiens) (UniProt P57059); assay: Inhibition of SIK1 (unknown origin) at 1 uM
[40] = target: Testis-specific serine/threonine-protein kinase 6 (Homo sapiens) (UniProt Q9BXA6); assay: Inhibition of SSTK (unknown origin) at 1 uM
[41] = target: Serine/threonine-protein kinase TAO1 (Homo sapiens) (UniProt Q7L7X3); assay: Inhibition of TAOK1 (unknown origin) at 1 uM
[42] = target: Serine/threonine-protein kinase tousled-like 2 (Homo sapiens) (UniProt Q86UE8); assay: Inhibition of TLK2 (unknown origin) at 1 uM
Sequence of Serine/threonine-protein kinase tousled-like 2 (Homo sapiens) (Q86UE8 whole entry, looked up): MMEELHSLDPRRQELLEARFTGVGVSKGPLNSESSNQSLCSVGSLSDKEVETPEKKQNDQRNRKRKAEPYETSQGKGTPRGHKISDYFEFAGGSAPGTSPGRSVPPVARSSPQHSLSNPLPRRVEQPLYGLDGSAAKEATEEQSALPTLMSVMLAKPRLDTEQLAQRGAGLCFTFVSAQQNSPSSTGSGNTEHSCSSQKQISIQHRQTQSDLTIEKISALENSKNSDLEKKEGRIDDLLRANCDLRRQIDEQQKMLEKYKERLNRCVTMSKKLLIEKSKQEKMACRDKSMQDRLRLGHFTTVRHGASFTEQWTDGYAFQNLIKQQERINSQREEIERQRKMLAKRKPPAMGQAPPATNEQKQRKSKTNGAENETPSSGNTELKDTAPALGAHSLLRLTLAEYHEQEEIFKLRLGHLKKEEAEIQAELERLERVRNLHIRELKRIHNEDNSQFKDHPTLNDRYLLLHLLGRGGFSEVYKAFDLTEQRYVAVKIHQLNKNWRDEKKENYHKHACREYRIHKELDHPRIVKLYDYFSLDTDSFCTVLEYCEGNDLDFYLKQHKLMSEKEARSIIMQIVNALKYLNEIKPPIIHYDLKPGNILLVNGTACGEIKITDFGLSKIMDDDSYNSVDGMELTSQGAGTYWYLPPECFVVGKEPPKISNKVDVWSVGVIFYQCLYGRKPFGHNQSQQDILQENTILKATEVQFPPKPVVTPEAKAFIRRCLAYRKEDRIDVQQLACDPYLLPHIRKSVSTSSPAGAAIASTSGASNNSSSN

Sequence of Mitogen-activated protein kinase kinase kinase 10 (Homo sapiens) (Q02779 whole entry, looked up): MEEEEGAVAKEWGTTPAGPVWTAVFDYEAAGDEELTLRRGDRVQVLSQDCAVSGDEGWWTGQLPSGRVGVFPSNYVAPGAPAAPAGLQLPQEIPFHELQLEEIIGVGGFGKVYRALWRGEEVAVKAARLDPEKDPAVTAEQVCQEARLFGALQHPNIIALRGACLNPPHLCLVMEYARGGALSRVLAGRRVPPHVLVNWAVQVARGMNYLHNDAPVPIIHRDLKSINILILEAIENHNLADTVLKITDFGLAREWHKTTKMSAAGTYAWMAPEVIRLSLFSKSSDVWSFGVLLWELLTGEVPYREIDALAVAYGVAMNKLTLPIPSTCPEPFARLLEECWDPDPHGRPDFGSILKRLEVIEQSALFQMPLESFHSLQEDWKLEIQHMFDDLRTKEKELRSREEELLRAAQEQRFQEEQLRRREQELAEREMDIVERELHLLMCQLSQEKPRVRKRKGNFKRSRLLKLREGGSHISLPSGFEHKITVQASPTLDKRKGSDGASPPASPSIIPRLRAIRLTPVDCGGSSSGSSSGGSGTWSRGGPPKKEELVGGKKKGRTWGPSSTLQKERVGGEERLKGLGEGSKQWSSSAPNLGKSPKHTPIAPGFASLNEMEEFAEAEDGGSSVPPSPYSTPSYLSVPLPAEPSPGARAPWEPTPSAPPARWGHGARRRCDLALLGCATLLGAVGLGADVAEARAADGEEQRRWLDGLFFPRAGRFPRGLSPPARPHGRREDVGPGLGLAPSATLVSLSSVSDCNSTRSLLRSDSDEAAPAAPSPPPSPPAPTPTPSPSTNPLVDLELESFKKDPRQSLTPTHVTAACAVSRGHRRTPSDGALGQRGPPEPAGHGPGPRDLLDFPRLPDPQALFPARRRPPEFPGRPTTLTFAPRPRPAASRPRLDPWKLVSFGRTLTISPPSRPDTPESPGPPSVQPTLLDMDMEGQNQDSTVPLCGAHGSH
Sequence of Ephrin type-B receptor 1 (Homo sapiens) (P54762 whole entry): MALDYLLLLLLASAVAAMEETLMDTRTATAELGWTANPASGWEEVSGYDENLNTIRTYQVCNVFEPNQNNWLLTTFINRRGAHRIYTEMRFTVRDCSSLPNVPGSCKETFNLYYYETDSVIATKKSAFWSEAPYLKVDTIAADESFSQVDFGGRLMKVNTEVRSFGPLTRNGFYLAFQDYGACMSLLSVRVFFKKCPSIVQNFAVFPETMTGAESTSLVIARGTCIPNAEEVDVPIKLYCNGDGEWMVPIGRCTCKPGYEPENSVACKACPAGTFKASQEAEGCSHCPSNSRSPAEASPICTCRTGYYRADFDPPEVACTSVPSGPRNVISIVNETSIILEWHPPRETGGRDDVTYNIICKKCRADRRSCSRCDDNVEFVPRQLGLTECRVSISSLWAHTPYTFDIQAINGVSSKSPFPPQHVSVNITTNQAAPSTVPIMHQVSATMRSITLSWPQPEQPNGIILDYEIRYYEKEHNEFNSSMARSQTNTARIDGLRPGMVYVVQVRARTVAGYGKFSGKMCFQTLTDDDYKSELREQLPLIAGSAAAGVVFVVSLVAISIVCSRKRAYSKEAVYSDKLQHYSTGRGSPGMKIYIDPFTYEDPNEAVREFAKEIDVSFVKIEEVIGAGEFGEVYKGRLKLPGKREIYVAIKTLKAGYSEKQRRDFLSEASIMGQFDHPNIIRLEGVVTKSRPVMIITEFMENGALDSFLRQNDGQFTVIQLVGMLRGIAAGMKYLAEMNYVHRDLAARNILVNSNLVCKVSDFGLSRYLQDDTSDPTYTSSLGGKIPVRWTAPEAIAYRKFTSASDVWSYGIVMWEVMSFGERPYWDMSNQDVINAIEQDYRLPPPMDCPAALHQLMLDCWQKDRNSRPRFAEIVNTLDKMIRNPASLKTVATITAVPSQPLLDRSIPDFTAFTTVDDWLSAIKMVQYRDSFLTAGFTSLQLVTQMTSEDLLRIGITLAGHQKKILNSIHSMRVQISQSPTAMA
Sequence of Kinase suppressor of Ras 2 (Homo sapiens) (Q6VAB6 whole entry): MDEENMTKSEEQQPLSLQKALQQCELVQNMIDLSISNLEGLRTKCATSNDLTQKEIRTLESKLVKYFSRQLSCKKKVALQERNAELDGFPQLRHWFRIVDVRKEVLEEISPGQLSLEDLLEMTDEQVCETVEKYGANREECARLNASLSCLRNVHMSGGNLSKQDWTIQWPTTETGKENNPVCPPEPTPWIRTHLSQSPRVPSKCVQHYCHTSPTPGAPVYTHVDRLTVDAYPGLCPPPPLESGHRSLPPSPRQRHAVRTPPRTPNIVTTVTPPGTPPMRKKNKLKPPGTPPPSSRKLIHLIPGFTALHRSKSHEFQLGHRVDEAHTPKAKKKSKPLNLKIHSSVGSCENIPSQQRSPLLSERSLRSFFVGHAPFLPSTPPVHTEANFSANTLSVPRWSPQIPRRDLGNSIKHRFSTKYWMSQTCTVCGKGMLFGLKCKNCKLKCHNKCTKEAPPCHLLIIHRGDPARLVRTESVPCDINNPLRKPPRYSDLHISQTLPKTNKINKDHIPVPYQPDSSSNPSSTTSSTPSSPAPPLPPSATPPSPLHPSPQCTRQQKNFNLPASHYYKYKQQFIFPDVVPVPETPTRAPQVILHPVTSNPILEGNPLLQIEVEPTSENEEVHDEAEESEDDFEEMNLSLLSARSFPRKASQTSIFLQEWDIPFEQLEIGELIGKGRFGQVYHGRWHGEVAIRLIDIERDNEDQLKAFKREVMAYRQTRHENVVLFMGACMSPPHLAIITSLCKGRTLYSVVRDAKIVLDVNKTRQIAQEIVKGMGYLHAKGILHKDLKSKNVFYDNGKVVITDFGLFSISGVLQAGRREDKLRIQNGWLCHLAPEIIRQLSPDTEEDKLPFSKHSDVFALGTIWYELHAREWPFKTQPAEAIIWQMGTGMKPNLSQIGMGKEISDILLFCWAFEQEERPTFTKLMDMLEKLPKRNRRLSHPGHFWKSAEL
Sequence of Dual specificity tyrosine-phosphorylation-regulated kinase 1B (Homo sapiens) (Q9Y463 whole entry, looked up): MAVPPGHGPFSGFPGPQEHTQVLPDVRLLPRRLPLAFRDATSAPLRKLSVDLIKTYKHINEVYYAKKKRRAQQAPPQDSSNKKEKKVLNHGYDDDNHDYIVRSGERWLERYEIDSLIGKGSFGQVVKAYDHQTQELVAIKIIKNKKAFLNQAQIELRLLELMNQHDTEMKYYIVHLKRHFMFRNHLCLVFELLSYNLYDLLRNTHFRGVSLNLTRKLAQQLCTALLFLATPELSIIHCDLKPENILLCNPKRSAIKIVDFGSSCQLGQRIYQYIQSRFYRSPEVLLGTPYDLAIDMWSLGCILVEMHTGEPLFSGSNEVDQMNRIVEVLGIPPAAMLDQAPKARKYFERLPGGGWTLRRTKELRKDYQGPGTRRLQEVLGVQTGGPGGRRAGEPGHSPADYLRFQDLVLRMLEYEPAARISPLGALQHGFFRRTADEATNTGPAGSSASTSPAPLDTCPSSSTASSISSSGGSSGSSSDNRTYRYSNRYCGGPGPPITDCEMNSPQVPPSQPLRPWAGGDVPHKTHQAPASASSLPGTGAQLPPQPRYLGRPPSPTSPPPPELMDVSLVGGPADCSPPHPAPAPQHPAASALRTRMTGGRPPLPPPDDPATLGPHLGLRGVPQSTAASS
Sequence of Activin receptor type-1B (Homo sapiens) (P36896 whole entry): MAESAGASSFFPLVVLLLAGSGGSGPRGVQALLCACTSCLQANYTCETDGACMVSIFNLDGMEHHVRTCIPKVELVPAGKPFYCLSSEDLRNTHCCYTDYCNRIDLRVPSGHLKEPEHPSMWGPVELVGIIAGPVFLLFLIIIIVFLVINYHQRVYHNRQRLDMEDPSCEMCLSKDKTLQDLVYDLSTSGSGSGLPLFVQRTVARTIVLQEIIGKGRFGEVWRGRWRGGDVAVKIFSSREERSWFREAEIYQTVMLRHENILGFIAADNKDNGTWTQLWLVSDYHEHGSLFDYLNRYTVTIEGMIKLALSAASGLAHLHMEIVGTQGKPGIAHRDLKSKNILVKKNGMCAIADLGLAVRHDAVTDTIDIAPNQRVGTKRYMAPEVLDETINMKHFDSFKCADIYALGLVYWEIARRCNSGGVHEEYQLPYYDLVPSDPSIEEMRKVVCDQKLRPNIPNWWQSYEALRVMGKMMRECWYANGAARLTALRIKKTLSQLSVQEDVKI
Sequence of Testis-specific serine/threonine-protein kinase 6 (Homo sapiens) (Q9BXA6 whole entry): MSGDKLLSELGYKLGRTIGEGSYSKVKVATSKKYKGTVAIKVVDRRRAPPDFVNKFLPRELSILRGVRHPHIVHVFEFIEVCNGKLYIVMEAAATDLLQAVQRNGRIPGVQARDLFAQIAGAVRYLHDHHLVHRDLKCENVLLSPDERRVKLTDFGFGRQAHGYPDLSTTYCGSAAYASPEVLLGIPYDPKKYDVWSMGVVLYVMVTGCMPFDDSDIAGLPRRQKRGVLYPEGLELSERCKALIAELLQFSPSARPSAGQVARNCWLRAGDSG

`OCCOCc1cn(CCNc2nonc2/C(=N/O)Nc2ccc(F)c(Br)c2)nn1` showed a microsomal CLint [1] of 245 µL/min/mg, an efflux ratio [2] of 6.4 and a fraction unbound [3] of 0.0411. The inhibition in vivo at 50 mg/kg (CT26) was 69.7%, the Activity (HCT-116) was 15.3% and the inhibition [4] was “inactive”. The inhibition (Homo sapiens [5]) was “inactive”, the inhibition [6] was “inactive” and the inhibition [7] was “inactive”. For the same compound, the inhibition [8] was “inactive”, the inhibition [9] was “inactive” and the inhibition [10] was “inactive”. The inhibition [11] was “inactive”, the inhibition [12] was “inactive” and the inhibition [13] was “inactive”. The inhibition [14] was “inactive”, the inhibition [15] was “inactive” and the inhibition [16] was “inactive”. For the same compound, the inhibition [17] was “inactive”, the inhibition [18] was “inactive” and the inhibition [19] was “inactive”. The inhibition [20] was “inactive”, the inhibition [21] was “inactive” and the inhibition [22] was “inactive”. The inhibition [23] was “inactive”, the inhibition [24] was “inactive” and the inhibition [25] was “inactive”. The inhibition [26] was “inactive”, the inhibition [27] was “inactive” and the inhibition [28] was “inactive”. The inhibition [29] was “inactive”, the inhibition [30] was “inactive” and the inhibition [31] was “inactive”. For the same compound, the inhibition [32] was “inactive”, the inhibition [33] was “inactive” and the inhibition [34] was “inactive”. The inhibition [35] was “inactive”, the inhibition [36] was “inactive” and the inhibition [37] was “inactive”. For the same compound, the inhibition (Homo sapiens [38]) was “inactive”, the inhibition [39] was “inactive” and the inhibition [40] was “inactive”. For the same compound, the inhibition [41] was “inactive” and the inhibition [42] was “inactive”.
